Reference: patent publication US8808771B2, “Active ingredient delivery system with an amorphous metal salt as carrier” (Firmenich SA, priority 2006, dated 2014)

Assay: Extinction coefficient (phenol band at 280 nm) before and after addition of ACAP, entrapment of naringin
Assay type: physicochemical
Settings: for E-value (extinction coefficient, phenol band at 280 nm): diluted 1:12 with 30 wt % ethanolic solution, slightly acidic
Experimental: A conventional double jet precipitation process, which can be operated both batch wise and in a continuous mode, was used. The active ingredient (Naringin) was firstly dissolved in ethanol or ethanol/water medium. A first stream comprising Ca^2+ ions (provided as calcium chloride solution) and a second stream comprising PO4^3− ions (provided as sodium phosphate), were prepared in order to give a resulting carrier component comprising ACAP solution at 10 g/L. A third stream comprising a standard solution of 2 g/L of naringin in 30% ethanol solution was then prepared.
The three streams were jetted separately into a mixing chamber using a standard y-mixer with the reaction being stopped for equal volumes, i.e. 10 ml Ca^2+ stock solution plus 10 ml PO4^3− stock solution into 10 ml naringin. The extinction coefficient (strong phenol band at 280 nm, slightly acidic conditions) was determined after standardized dilution with 30 wt % ethanolic solution (1:12) and was compared before and after the addition of the ACAP.

C[C@@H]1O[C@@H](O[C@H]2[C@H](Oc3cc(O)c4c(c3)O[C@H](c3ccc(O)cc3)CC4=O)O[C@H](CO)[C@@H](O)[C@@H]2O)[C@H](O)[C@H](O)[C@H]1O [naringin, Naringin]
E-value (extinction coefficient, phenol band at 280 nm) (after addition of ACAP): 1.5
E-value (extinction coefficient, phenol band at 280 nm) (before addition of ACAP): 3.75
naringin entrapped by the ACAP (calculated from the lowering of the E-value): at least 70%
